The values that follow come from ChEMBL document CHEMBL1122453, “Structure-activity relationships in the antiinflammatory steroids: a pattern-recognition approach” (1983).

This assay is filed under the species Homo sapiens. The assay is described as follows: Potency relative to fluocinolone 16,17-acetonide in the human vasoconstictor test. It counts as functional.

Molecules are shown by their SMILES. Bounds are passed on as bounds.

The compound `CCCCC(=O)O[C@]1(C(=O)CO)[C@@H](C)C[C@H]2[C@@H]3CCC4=CC(=O)C=C[C@]4(C)[C@@]3(F)[C@@H](O)C[C@@]21C` [BETAMETHASONE VALERATE] had a Potency of 360. Compound `CCC(=O)O[C@]1(C(=O)O)[C@@H](C)CC2C3CCC4=CC(=O)C=CC4(C)C3(F)[C@@H](O)CC21C` (stereo not given in full) had a Potency of less than 1. Then `CCCOC(=O)[C@@]1(O)[C@@H](C)CC2C3CCC4=CC(=O)C=CC4(C)C3(F)[C@@H](O)CC21C` (stereo not given in full), with 5; and `CCCCC(=O)O[C@]1(C(=O)CO)CCC2C3CCC4=CC(=O)C=CC4(C)C3C(O)CC21C` (stereo not given in full), with less than 1. For `CCCC(=O)O[C@]1(C(=O)OCC)[C@@H](C)CC2C3CCC4=CC(=O)C=CC4(C)C3(F)[C@@H](O)CC21C` (stereo not given in full) the value was 40.

`CCC(=O)O[C@]1(C(=O)CCl)[C@@H](C)C[C@H]2[C@@H]3CCC4=CC(=O)C=C[C@]4(C)[C@@]3(F)[C@@H](O)C[C@@]21C` [CLOBETASOL PROPIONATE] came in with a Potency of 1869. Then `CC(=O)O[C@]1(C(=O)CO)C(C)CC2C3CCC4=CC(=O)C=CC4(C)[C@@]3(F)C(O)CC21C` (stereo not given in full), with 114; and `CCCC(=O)O[C@]1(C(=O)OC)[C@@H](C)CC2C3CCC4=CC(=O)C=CC4(C)[C@@]3(F)[C@@H](O)CC21C` (stereo not given in full), with 175.

In turn, `CCCCC(=O)O[C@]1(C(=O)CCl)[C@@H](C)C[C@H]2[C@@H]3CCC4=CC(=O)C=C[C@]4(C)[C@@]3(F)[C@@H](O)C[C@@]21C` came in with a Potency of 91.

As for `CC(=O)O[C@]1(C(=O)CO)CCC2C3C[C@H](F)C4=CC(=O)C=CC4(C)[C@@]3(F)C(O)CC21C` (stereo not given in full), the Potency was less than 360. Then `COC(=O)[C@@]1(OC(C)=O)[C@@H](C)CC2C3CCC4=CC(=O)C=CC4(C)[C@@]3(F)[C@@H](O)CC21C` (stereo not given in full), with 385. `CCCC(=O)OCC(=O)[C@@]1(O)C(C)CC2C3CCC4=CC(=O)C=CC4(C)[C@@]3(F)C(O)CC21C` (stereo not given in full) registered a Potency of 85. For `CCCC(=O)OC1(C(=O)CCl)[C@@H](C)CC2C3CCC4=CC(=O)C=C[C@]4(C)[C@@]3(F)[C@@H](O)C[C@@]21C` (stereo not given in full) the value was 1166; for `CCC(=O)O[C@]1(C(=O)COC(=O)C(C)C)CCC2C3C[C@H](F)C4=CC(=O)C=CC4(C)[C@@]3(F)C(O)CC21C` (stereo not given in full), 1080; for `CCCOC(=O)[C@@]1(OC(=O)CCC)[C@@H](C)CC2C3CCC4=CC(=O)C=CC4(C)C3(F)[C@@H](O)CC21C` (stereo not given in full), 40. `CCCCC(=O)O[C@]1(C(=O)CO)CCC2C3C[C@H](F)C4=CC(=O)CCC4(C)[C@@]3(F)C(O)CC21C` (stereo not given in full): the Potency was found to be 360.

`CC(C)C(=O)O[C@]1(C(=O)CO)CCC2C3C[C@H](F)C4=CC(=O)C=CC4(C)[C@@]3(F)C(O)CC21C` (stereo not given in full) registered a Potency of less than 360.

`CC(=O)OCC(=O)[C@@]12OC(C)(C)O[C@@H]1C[C@H]1[C@@H]3C[C@H](F)C4=CC(=O)C=C[C@]4(C)[C@@]3(F)[C@@H](O)C[C@@]12C` [FLUOCINONIDE]: the Potency came to 300. In the case of `CC(=O)[C@H]1CC[C@H]2[C@@H]3C[C@H](C)C4=CC(=O)CC[C@]4(C)[C@H]3[C@@H](O)C[C@]12C` [MEDRYSONE], the Potency is listed as less than 1. For `CCCC(=O)OCC(=O)[C@@]1(OC(=O)CC)CCC2C3C[C@H](F)C4=CC(=O)C=CC4(C)[C@@]3(F)C(O)CC21C` (stereo not given in full), the Potency is given as 1260. Then `CC(=O)OCC(=O)[C@@]1(OC(=O)C(C)C)CCC2C3C[C@H](F)C4=CC(=O)C=CC4(C)[C@@]3(F)C(O)CC21C` (stereo not given in full), with 720. For `CCC(=O)O[C@]1(C(=O)COC(C)=O)CCC2C3C[C@H](F)C4=CC(=O)C=CC4(C)[C@@]3(F)C(O)CC21C` (stereo not given in full) the value was 1080; for `CC12CCC(=O)C=C1CCC1C2C(O)CC2(C)C1CC[C@]2(O)C(=O)COP(=O)(O)O` (stereo not given in full), 0.01; for `C[C@H]1C[C@H]2C3CCC4=CC(=O)C=C[C@]4(C)[C@@]3(F)[C@@H](O)C[C@]2(C)[C@@]1(O)C(=O)O` (stereo not given in full), less than 1. The compound `CCCCC(=O)O[C@]1(C(=O)COC(C)=O)CC[C@H]2[C@@H]3C[C@H](F)C4=CC(=O)CC[C@]4(C)[C@@]3(F)[C@@H](O)C[C@@]21C` displayed a Potency of 360. For `CC(=O)O[C@]1(C(=O)CCl)[C@@H](C)CC2C3CCC4=CC(=O)C=CC4(C)[C@@]3(F)[C@@H](O)CC21C` (stereo not given in full) the value was 812; for `CC(=O)O[C@]1(C(=O)O)[C@@H](C)CC2C3CCC4=CC(=O)C=CC4(C)C3(F)[C@@H](O)CC21C` (stereo not given in full), less than 1; for `C[C@@H]1C[C@H]2[C@@H]3C[C@H](F)C4=CC(=O)C=C[C@]4(C)[C@@]3(F)[C@@H](O)C[C@]2(C)[C@@]1(O)C(=O)COC(=O)C(C)(C)C` [FLUMETHASONE PIVALATE], 360. `CC(C)C(=O)O[C@]1(C(=O)CO)C(C)CC2C3CCC4=CC(=O)C=CC4(C)[C@@]3(F)C(O)CC21C` (stereo not given in full) gave a Potency of 470. For `CC(C)C(=O)OC1(C(=O)CCl)[C@@H](C)CC2C3CCC4=CC(=O)C=CC4(C)[C@]3(F)[C@@H](O)CC21C` (stereo not given in full) the value was 378. On to `CCC(=O)O[C@]1(C(=O)COC(=O)C(C)(C)C)CCC2C3C[C@H](F)C4=CC(=O)C=CC4(C)[C@@]3(F)C(O)CC21C` (stereo not given in full), for which the Potency was found to be 720. The compound `CC12C=CC(=O)C=C1[C@@H](F)CC1C3CC[C@](O)(C(=O)CO)C3(C)CC(O)[C@@]12F` (stereo not given in full) came in with a Potency of less than 360. For `CCOC(=O)[C@@]1(OC(C)=O)[C@@H](C)CC2C3CCC4=CC(=O)C=CC4(C)C3(F)[C@@H](O)CC21C` (stereo not given in full) the value was 16; for `CCCCC(=O)O[C@]1(C(=O)CO)CCC2C3C[C@H](F)C4=CC(=O)C=CC4(C)[C@@]3(F)C(O)CC21C` (stereo not given in full), 360. As for `CC(=O)O[C@]1(C(C)=O)CCC2C3C[C@H](F)C4=CC(=O)C=CC4(C)[C@@]3(F)C(O)CC21C` (stereo not given in full), the Potency is on record as 540. The compound `CCCC(=O)O[C@]1(C(=O)CO)C(C)CC2C3CCC4=CC(=O)C=CC4(C)[C@@]3(F)C(O)CC21C` (stereo not given in full) yielded a Potency of 168. Compound `CCCCC(=O)OCC(=O)[C@@]1(O)C(C)CC2C3CCC4=CC(=O)C=CC4(C)[C@@]3(F)C(O)CC21C` (stereo not given in full) came in with a Potency of 26. Then `CC(=O)[C@@]1(O)CCC2C3CCC4=CC(=O)CCC4(C)C3C(O)CC21C` (stereo not given in full), with 0.4; and `CCCOC(=O)[C@@]1(OC(=O)CC)[C@@H](C)CC2C3CCC4=CC(=O)C=CC4(C)C3(F)[C@@H](O)CC21C` (stereo not given in full), with 30; and `CCCC(=O)O[C@]1(C(=O)COC(C)=O)CC[C@H]2[C@@H]3C[C@H](F)C4=CC(=O)C=C[C@]4(C)[C@@]3(F)[C@@H](O)C[C@@]21C` [DIFLUPREDNATE], with 1170.

With `CCC(=O)OCC(=O)[C@@]1(O)[C@@H](C)C[C@H]2[C@@H]3CCC4=CC(=O)C=C[C@]4(C)[C@@]3(F)[C@@H](O)C[C@@]21C`, the Potency stood at 40. `CC(=O)O[C@]1(C(=O)COC(=O)C(C)C)CCC2C3C[C@H](F)C4=CC(=O)C=CC4(C)[C@@]3(F)C(O)CC21C` (stereo not given in full) came in with a Potency of 720. Then `CCC(=O)O[C@]1(C(=O)OCCl)[C@@H](C)CC2C3CCC4=CC(=O)C=CC4(C)[C@@]3(F)[C@@H](O)CC21C` (stereo not given in full), with 400. For `CCC(=O)OCC(=O)[C@@]1(OC(=O)CC)[C@@H](C)C[C@H]2[C@@H]3CCC4=CC(=O)C=C[C@]4(C)[C@@]3(Cl)[C@@H](O)C[C@@]21C` [BECLOMETHASONE DIPROPIONATE] the value was 500; for `CCCCC(=O)O[C@]1(C(=O)COC(C)=O)CCC2C3C[C@H](F)C4=CC(=O)C=CC4(C)[C@@]3(F)C(O)CC21C` (stereo not given in full), 720; for `C[C@]12C=CC(=O)C=C1[C@@H](F)C[C@@H]1[C@@H]2[C@@H](O)C[C@@]2(C)[C@H]1CC[C@]2(O)C(=O)CO` [FLUPREDNISOLONE], 1. In turn, `CC(C)C(=O)OCC(=O)[C@@]1(OC(=O)C(C)C)CCC2C3C[C@H](F)C4=CC(=O)C=CC4(C)[C@@]3(F)C(O)CC21C` (stereo not given in full) yielded a Potency of 720.

Turning to `CC1CC2C3CCC4=CC(=O)C=CC4(C)[C@@]3(Cl)C(O)CC2(C)[C@@]1(O)C(=O)CO` (stereo not given in full), the Potency was determined as 0.8.

As to `CCC(=O)OCC(=O)[C@@]1(OC(=O)CC)[C@@H](C)C[C@H]2[C@@H]3CCC4=CC(=O)C=C[C@]4(C)[C@@]3(F)[C@@H](O)C[C@@]21C` [BETAMETHASONE DIPROPIONATE], the Potency is 1300. Then `C[C@]12C=CC(=O)C=C1CC[C@@H]1[C@@H]2[C@@H](O)C[C@@]2(C)[C@H]1CC[C@]2(O)C(=O)COP(=O)(O)O` [PREDNISOLONE PHOSPHORIC ACID], with 0.1. Compound `CCCC(=O)O[C@]1(C(=O)CO)CCC2C3C[C@H](F)C4=CC(=O)C=CC4(C)[C@@]3(F)C(O)CC21C` (stereo not given in full) came in with a Potency of less than 360. Then `CCCC(=O)OCC(=O)[C@@]1(OC(=O)CCC)CC[C@H]2[C@@H]3C[C@H](F)C4=CC(=O)C=C[C@]4(C)[C@@]3(F)[C@@H](O)C[C@@]21C`, with 540. `CC(=O)OCC(=O)[C@@]1(O)[C@H](C)C[C@H]2[C@@H]3CCC4=CC(=O)C=C[C@]4(C)[C@@]3(F)[C@@H](O)C[C@@]21C` [DEXAMETHASONE ACETATE] returned a Potency of 8. `CCC(=O)OCC(=O)[C@@]1(OC(=O)CC)CCC2C3C[C@H](F)C4=CC(=O)C=CC4(C)[C@@]3(F)C(O)CC21C` (stereo not given in full): the Potency is listed as 853. Then `CCCC(=O)O[C@]1(C(=O)COC(=O)CC)CCC2C3C[C@H](F)C4=CC(=O)C=CC4(C)[C@@]3(F)C(O)CC21C` (stereo not given in full), with 1058; and `CCC(=O)OCC(=O)[C@@]1(OC(=O)C(C)C)CCC2C3C[C@H](F)C4=CC(=O)C=CC4(C)[C@@]3(F)C(O)CC21C` (stereo not given in full), with 900.

On to `CCCC(=O)O[C@]1(C(=O)COC(=O)C(C)C)CCC2C3C[C@H](F)C4=CC(=O)C=CC4(C)[C@@]3(F)C(O)CC21C` (stereo not given in full), for which the Potency was 1080.

Regarding `CCCCC(=O)O[C@]1(C(=O)O)[C@@H](C)CC2C3CCC4=CC(=O)C=CC4(C)C3(F)[C@@H](O)CC21C` (stereo not given in full), the Potency is less than 1. In the case of `C[C@@H]1CC2C3CCC4=CC(=O)C=CC4(C)[C@@]3(F)C(O)CC2(C)[C@@]1(O)C(=O)COP(=O)(O)O` (stereo not given in full), the Potency is given as 2.

`CCC(=O)O[C@]1(C(C)=O)CCC2C3C[C@H](F)C4=CC(=O)C=CC4(C)[C@@]3(F)C(O)CC21C` (stereo not given in full) yielded a Potency of 900.
